# Test results taken from ChEMBL document CHEMBL3352757, “Mono- and di-halogenated histamine, histidine and carnosine derivatives are potent carbonic anhydrase I, II, VII, XII and XIV activators” (Bioorg Med Chem, 2014).
# Tests used:
# [1] = target: Carbonic anhydrase 1 (Homo sapiens) (UniProt P00915); test: Activation of […] human carbonic anhydrase-1 incubated for 15 mins prior to testing by stopped-flow CO2 hydrase assay
# [2] = target: Carbonic anhydrase 2 (Homo sapiens) (UniProt P00918); test: Activation of […] human carbonic anhydrase-2 incubated for 15 mins prior to testing by stopped-flow CO2 hydrase assay
# [3] = target: Carbonic anhydrase 7 (Homo sapiens) (UniProt P43166); test: Activation of […] human carbonic anhydrase-7 incubated for 15 mins prior to testing by stopped-flow CO2 hydrase assay
# Sequence of Carbonic anhydrase 7 (Homo sapiens) (P43166 whole entry): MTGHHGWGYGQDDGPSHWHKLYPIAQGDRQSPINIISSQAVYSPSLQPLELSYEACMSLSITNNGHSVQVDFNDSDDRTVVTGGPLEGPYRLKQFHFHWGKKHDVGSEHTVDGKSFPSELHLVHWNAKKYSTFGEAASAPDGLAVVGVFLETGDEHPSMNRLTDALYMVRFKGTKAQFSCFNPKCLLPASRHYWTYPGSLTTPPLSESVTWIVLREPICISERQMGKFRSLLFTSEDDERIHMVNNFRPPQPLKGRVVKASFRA
# [4] = target: Carbonic anhydrase 12 (Homo sapiens) (UniProt O43570); test: Activation of transmembrane human carbonic anhydrase-12 incubated for 15 mins prior to testing by stopped-flow CO2 hydrase assay
# Sequence of Carbonic anhydrase 12 (Homo sapiens) (O43570 whole entry): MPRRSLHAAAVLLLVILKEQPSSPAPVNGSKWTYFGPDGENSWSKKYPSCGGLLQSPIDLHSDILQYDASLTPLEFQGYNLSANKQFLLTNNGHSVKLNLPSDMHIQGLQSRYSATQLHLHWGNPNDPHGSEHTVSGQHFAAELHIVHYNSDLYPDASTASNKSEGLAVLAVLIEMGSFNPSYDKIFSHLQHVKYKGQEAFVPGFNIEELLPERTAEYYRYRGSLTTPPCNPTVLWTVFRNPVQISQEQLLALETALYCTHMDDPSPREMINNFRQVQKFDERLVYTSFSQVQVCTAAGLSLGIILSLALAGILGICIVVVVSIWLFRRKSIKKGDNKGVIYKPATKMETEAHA
# [5] = target: Carbonic anhydrase 14 (Homo sapiens) (UniProt Q9ULX7); test: Activation of transmembrane human carbonic anhydrase-14 incubated for 15 mins prior to testing by stopped-flow CO2 hydrase assay
# Sequence of Carbonic anhydrase 14 (Homo sapiens) (Q9ULX7 whole entry): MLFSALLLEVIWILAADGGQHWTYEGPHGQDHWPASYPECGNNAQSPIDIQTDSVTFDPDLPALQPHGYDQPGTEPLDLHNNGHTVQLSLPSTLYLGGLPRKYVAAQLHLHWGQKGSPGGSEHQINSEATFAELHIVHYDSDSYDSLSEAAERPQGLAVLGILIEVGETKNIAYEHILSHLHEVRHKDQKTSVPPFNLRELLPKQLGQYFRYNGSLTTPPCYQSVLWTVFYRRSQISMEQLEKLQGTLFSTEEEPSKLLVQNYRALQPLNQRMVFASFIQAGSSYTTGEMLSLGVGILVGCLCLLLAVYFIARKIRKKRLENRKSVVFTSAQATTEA
# Sequence of Carbonic anhydrase 1 (Homo sapiens) (P00915 2-261 limits assumed): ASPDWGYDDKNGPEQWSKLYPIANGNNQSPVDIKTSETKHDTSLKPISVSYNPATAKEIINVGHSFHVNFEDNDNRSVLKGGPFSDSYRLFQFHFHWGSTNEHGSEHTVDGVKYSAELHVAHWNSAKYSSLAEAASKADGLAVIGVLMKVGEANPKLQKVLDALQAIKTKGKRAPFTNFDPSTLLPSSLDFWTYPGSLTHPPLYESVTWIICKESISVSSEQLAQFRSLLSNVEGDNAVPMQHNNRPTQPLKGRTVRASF
Structure (SMILES),KA [1],KA [2],KA [3],KA [4],KA [5]
COC(=O)[C@H](Cc1c[nH]cn1)NC(=O)CCN,10.9 µM,32 µM,0.84 µM,0.96 µM,0.71 µM
CC(C)(C)OC(=O)NCCc1nc(Br)[nH]c1Br,13.3 µM,28.5 µM,28.3 µM,37.4 µM,29.5 µM
COC(=O)[C@@H](N)Cc1nc[nH]c1Cl,21.3 µM,13.1 µM,36.1 µM,0.078 µM,6.4 µM
COC(=O)[C@H](Cc1nc(Cl)[nH]c1Cl)NC(=O)CCN,22.5 µM,10.9 µM,0.01 µM,0.072 µM,10.3 µM
COC(=O)[C@H](Cc1nc[nH]c1Br)NC(=O)OC(C)(C)C,7.3 µM,26.5 µM,40.2 µM,10.7 µM,0.92 µM
COC(=O)[C@H](Cc1nc[nH]c1Cl)NC(=O)OC(C)(C)C,10.1 µM,29 µM,47.6 µM,42.5 µM,24.1 µM
COC(=O)[C@H](Cc1nc[nH]c1Cl)NC(=O)CCN,1.25 µM,30.9 µM,0.013 µM,21.5 µM,15.3 µM
COC(=O)[C@@H](N)Cc1nc[nH]c1I,0.0012 µM,0.32 µM,6.2 µM,14.3 µM,7.8 µM
COC(=O)[C@H](Cc1nc(I)[nH]c1I)NC(=O)CCN,21.4 µM,2.9 µM,3.5 µM,10.5 µM,20.1 µM
COC(=O)[C@H](Cc1nc(I)[nH]c1I)NC(=O)OC(C)(C)C,0.0015 µM,0.013 µM,10.3 µM,64.7 µM,34.9 µM
COC(=O)[C@H](Cc1nc(I)[nH]c1I)NC(=O)CCNC(=O)OC(C)(C)C,18.7 µM,8.2 µM,0.74 µM,40.5 µM,52.7 µM
COC(=O)[C@@H](N)Cc1nc(Br)[nH]c1Br,1.4 µM,1.08 µM,9.7 µM,0.83 µM,22.1 µM
CC(C)(C)OC(=O)NCCc1nc(Cl)[nH]c1Cl,16.5 µM,24.8 µM,13.1 µM,40.2 µM,28.1 µM
NCCc1nc(Br)[nH]c1Br,0.012 µM,0.008 µM,0.74 µM,25.2 µM,13.1 µM
NCCc1nc[nH]c1Br,0.015 µM,0.096 µM,5.2 µM,3.2 µM,16.2 µM
NCCc1nc(Cl)[nH]c1Cl,0.018 µM,0.032 µM,0.041 µM,5.7 µM,38.9 µM
CC(C)(C)OC(=O)NCCc1nc(I)[nH]c1I,12.1 µM,36.7 µM,45.6 µM,35 µM,37.1 µM
COC(=O)[C@H](Cc1nc(Br)[nH]c1Br)NC(=O)OC(C)(C)C,0.032 µM,0.96 µM,13.1 µM,1.62 µM,3.51 µM
COC(=O)[C@H](Cc1nc[nH]c1I)NC(=O)CCN,7.6 µM,1.6 µM,1.06 µM,40.1 µM,39.2 µM
